From patent US20090325884A1, “Method for Detecting Autoantibodies Formed in Rheumatoid Arthritis” (PROCOLLAGEN OY, priority 2005, published 2009) come the findings set out here.

Marks after values point to notes of the source that are not given here. Where no end group is shown, it is not given here. [ ]: non-standard residue; d: D form. Cit = NC(=O)NCCC[C@H](N)C(=O)O

One assay relates to human sera. Kind of assay: ELISA: binding of biotinylated collagen peptides to human sera. The settings on record: for Controls mean ± SD absorbance: 81 sera from healthy controls, read at 450 nm; for Controls over mean + 2 SD number: number of the 81 control sera; for RA patients over mean + 2 SD number: number of the 120 RA sera, significance marks versus controls; for number of RA sera that bound more citrullinated peptide than normal (arginine) peptide: 120 RA sera; for mean (variance/SD) of the differences, absorbance value of citrullinated peptide minus that of arginine peptide: control samples; for specific binding to the citrullinated form (autoantibodies against citrullinated proteins): RA sera. From the text: The serum samples from 120 patients with RA were obtained from the Division of Rheumatology of Oulu University Hospital. The controls consisted of 81 sera from healthy people matched for age and sex. Six pairs of biotinylated peptides were synthesised by NeoMPS (Strasbourg, France). […] FIGS. 1A-C show the localization of the peptides CC1-CC4 in type II collagen and their sequences; the numbers in brackets refer to arginine residues: CC1 (1059), CC2 (1048), CC3 (799) and CC4 (28). Collagenase cleavage site is shown by arrow in FIG. 1A -GPPGPQG|LAGQRGE- (SEQ ID NO:9). […] The sequence GPPGPGIDMSAFAGLGPREKGPDPLQYMXA is shown in the sequence listing as SEQ ID NO: 10. The 12 carboxy terminal amino acids represent the peptide CC1. […] One member of each pair contained the arginine predicted by the respective gene, whereas in the other member of the pair this was replaced by citrulline.
The biotinylated peptides were coupled to streptavidin-coated 96-well assay plates (BioBind Assembly, Thermo Labsystems Oy, Vantaa, Finland) at a concentration of 10 μg/well. The coupling was performed at room temperature, pH 7.5, for two hours. The streptavidin-coated wells had been blocked by the manufacturer to prevent unspecific binding.
The sera to be tested were diluted in assay buffer (10 mM Tris-HCl, 350mM NaCl, 1% BSA, 1% [vol/vol] Triton X-100, 0.5% [wt/vol] Na-deoxycholate, 0.1% SDS; pH 7.6) supplemented with 1% rabbit serum and incubated for an hour at room temperature. After washing (3 times with PBS/0.05% [vol/vol] Tween-20), 100 μl of anti-human IgG conjugated to peroxidase (Product #31412, Pierce, Rockford, Ill., USA) diluted 1:7500 in EIA buffer (20 mM Tris-HCl, 150 mM NaCl, 0.1% BSA, 0.05% Tween-20, pH 7.5) was added. After incubation for an hour at room temperature, the plates were washed (3 times with PBS/Tween-20). The bound antibodies were detected with 3,3′-5,5′-tetramethyl-benzidine (Sigma-Aldrich, St.Louis, Minn., USA) as a substrate (0.01 mg/100 μl per well in 100 mM sodium acetate trihydrate, 1.5 mM citric acid monohydrate, 0.0015% H2O2). After 30 minutes, the reaction was stopped by adding 100 μl 2M sulphuric acid/well. The plates were read at a wavelength of 450 nm in a Victor^2 instrument (Wallac, Turku, Finland) and calculated by Multicalc (Wallac). All the sera were tested in duplicate. The coefficients of variation were generally less than 10%.
A general note: An ELISA detects its analyte on a solid surface through an enzyme-linked reagent.

Assay [1] has as its system IgG antibodies against the synthetic C-telopeptides of the α1 chains of human type I and II collagens. The assay can be described thus: Two-site chemiluminescence immunoassay with biotinylated C-telopeptides. It is filed as binding. As to the method: The measurements were done with two-site chemiluminescence immunoassays, which detect IgG antibodies against the synthetic C-telopeptides of the α1 chains of human type I and II collagens (EKAHDGGRYYRA (SEQ ID NO:4), and EKGPDPLQYMRA (SEQ ID NO:5), or EKAHDGGRYYXA (SEQ ID NO:1), and EKGPDPLQYMXA (SEQ ID NO:3), respectively, where X stands for citrulline, from NeoMPS, Strasbourg, France). The serum samples were first diluted 1:10 in a buffer containing 10 mM Tris-HCl, 350 mM NaCl, 1% BSA, 1% [vol/vol] Triton X-100, 0.5% [wt/vol] Na-deoxycholate, 0.1% SDS; pH 7.6 and incubated with suitable concentrations of one of the above peptides (in biotinylated form) and streptavidin-coated magnetic particles for 10 minutes at 37° C. The unbound biotinylated antigen and antibodies were separated from the complex bound to the magnetic particles by aspiration of the reaction mixture and subsequent washing. Thereafter, acridinium-labeled anti-human IgG antibodies were added to the reaction mixture followed by another 10-minute incubation to produce the sandwich complex. The unbound label was separated by aspiration of the reaction mixture and subsequent washing. To the washed magnetic particles with the complex we injected the triggers 1 and 2, initiating the chemiluminescence reaction. […]

The test system of assay [2] is autoantibodies in sera binding citrulline containing type II collagen carboxytelopeptide. Kind of assay: Inhibition assay: citrullinated peptide ELISA with and without soluble peptide. The arrangement: species or system human. Particulars: soluble peptide 200 μg/ml. As to the method: Preferentially it is also possible to use only citrullinated peptide assay version, where this assay is performed with standard condition and with adding the same or similar soluble peptide in assay solution (200 μg/ml).
Sera from RA patients (n=120) and controls (n=80) were diluted 1:100 in assay buffer and/or inhibiting buffer (with soluble citrulline containing peptide (200 μg/ml)). The inhibition time was 30 minutes. After the inhibition reaction, the sera were moved to the wells of streptavidin-coated 96-well assay plates to which the biotinylated citrulline containing peptides had been coupled. After washing (3 times with PBS/0.05% [vol/vol] Tween-20), 100 μl of anti-human IgG conjugated to peroxidase (Product #31412, Pierce, Rockford, Ill., USA) diluted 1:7500 in EIA buffer (20 mM Tris-HCl, 150 mM NaCl, 0.1% BSA, 0.05% Tween-20, pH 7.5) was added. After incubation for an hour at room temperature, the plates were washed (3 times with PBS/Tween-20). The bound antibodies were detected with 3,3′-5,5′-tetramethyl-benzidine (Sigma-Aldrich, St.Louis, Minn., USA) as a substrate (0.01 mg/100 μl per well in 100 mM sodium acetate trihydrate, 1.5 mM citric acid monohydrate, 0.0015% H2O2). After 30 minutes, the reaction was stopped by adding 100 μl 2M sulphuric acid/well. The plates were read at a wavelength of 450 nm in a Victor instrument (Wallac, Turku, Finland). […]

Consider “EKAHDGGRYYRA (also: biotinylated, site not given here; listed as Homo sapiens) [C-telopeptide of α1(I) Arginine peptide, synthetic C-telopeptide of the α1 chain of human type I collagen]”, for which, in the assay on human sera, the “Controls mean ± SD absorbance” value worked out at 0.288 ± 0.142, the “Controls over mean + 2 SD number” value was 4/81 and the “RA patients over mean + 2 SD number” value is 6/120^ns.

With “EKAHDGGRYYXA (EKAHDGGRYY[Cit]A; also: biotinylated, site not given here)”, in the assay on human sera, the “Controls mean ± SD absorbance” value was found to be 0.314 ± 0.117; the “number of RA sera that bound more citrullinated peptide than normal (arginine) peptide” value came to 20; the “mean (variance/SD) of the differences, absorbance value of citrullinated peptide minus that of arginine peptide” value is recorded as “around +0.026 (0.074)”; the “Controls over mean + 2 SD number” value was 2/81. Moreover, the “RA patients over mean + 2 SD number” value with human sera is recorded as 24/120***. In addition, the “number of RA patients whose sera showed increased binding of the citrullinated peptide” value in assay [1] (out of 120 RA patients, p=0.003 compared to controls) was 44.

For the sequence “EKGPDPLQYMRA (listed as Homo sapiens) [CC1 Arginine peptide, C-telopeptide of the α1 chain of type II collagen]”, in the assay with human sera, the “Controls mean ± SD absorbance” value is on record as 0.181 ± 0.077, the “Controls over mean + 2 SD number” value is on record as 2/81 and the “RA patients over mean + 2 SD number” value is listed as 54/120***.

For “EKGPDPLQYMXA (EKGPDPLQYM[Cit]A; also: biotinylated, site not given here) [CC1 Citrulline peptide]”, the “inhibition-% with the respective soluble antigen in controls (mean±SD)” value in assay [2] (control sera diluted 1:100, 30 minutes) is 5.4%±3.8. For the same sequence, the “number of RA patients showing increased inhibition” value in assay [2] (out of 120, more inhibition than 13.0%) was 38. Further, in the assay with human sera, the “Controls mean ± SD absorbance” value was 0.155 ± 0.065, the “Controls over mean + 2 SD number” value is recorded as 2/81 and the “RA patients over mean + 2 SD number” value is given as 35/120***.

As for “EKGPDPLQYMXA (EKGPDPLQYM[Cit]A; also: biotinylated, site not given here) [CC1]”, in the assay with human sera, the “number of RA sera that bound more citrullinated peptide than normal (arginine) peptide” value came out at 12; the “specific binding to the citrullinated form (autoantibodies against citrullinated proteins)” value (from here on “specific binding”) was “specifically bound autoantibodies against citrullinated proteins”; the “mean (variance/SD) of the differences, absorbance value of citrullinated peptide minus that of arginine peptide” value is listed as −0.026 (SD 0.032). Further, in assay [1] (120 RA patients, p=0.074 compared to controls, not significant), the “number of patients' sera that bound the citrullinated peptide more strongly than the arginine peptide” value was found to be 35.

As to “GPMGPXGPPGPA (GPMGP[Cit]GPPGPA; also: biotinylated (site not given here)) [CC4 Citrulline peptide]”, in the assay on human sera, the “Controls mean ± SD absorbance” value was 0.184 ± 0.071, the “Controls over mean + 2 SD number” value is reported as 2/81 and the “RA patients over mean + 2 SD number” value was 22/120***.

Take “GPMGPXGPPGPA (GPMGP[Cit]GPPGPA; also: biotinylated (site not given here)) [CC4]”: in the assay on human sera, the “specific binding” value is “no specific binding” and the “mean (variance/SD) of the differences, absorbance value of citrullinated peptide minus that of arginine peptide” value is recorded as “+0.005 (0.020)”.

For the sequence “GPMGPXGPPGPA [CC4 Arginine peptide] (GPMGPRGPPGPA; also: biotinylated, site not given here) [type II collagen peptide, arginine residue 28]”, in the assay with human sera, the “Controls mean ± SD absorbance” value turned out to be 0.179 ± 0.070, the “Controls over mean + 2 SD number” value is 3/81 and the “RA patients over mean + 2 SD number” value is listed as 60/120***.

On to “LAGQXGIVGLP (LAGQ[Cit]GIVGLP; also: biotinylated (site not given here)) [CC3 Citrulline peptide]”, for which, in the assay with human sera, the “Controls mean ± SD absorbance” value is given as 0.181 ± 0.067, the “Controls over mean + 2 SD number” value is 2/81 and the “RA patients over mean + 2 SD number” value is 32/120***.

Turning to “LAGQXGIVGLP (LAGQ[Cit]GIVGLP; also: biotinylated (site not given here)) [CC3]”, in the assay with human sera, the “specific binding” value was “no specific binding” and the “mean (variance/SD) of the differences, absorbance value of citrullinated peptide minus that of arginine peptide” value is reported as −0.001 (0.026).

With LAGQXGIVGLP [CC3 Arginine peptide], in the assay with human sera, the “Controls mean ± SD absorbance” value was found to be 0.182 ± 0.073 and the “RA patients over mean + 2 SD number” value is given as 63/120***.

As for “SAFAGLGPXEKGPD (SAFAGLGP[Cit]EKGPD; also: biotinylated (site not given here)) [CC2 Citrulline peptide]”, in the assay with human sera, the “Controls mean ± SD absorbance” value stood at 0.135 ± 0.054, the “Controls over mean + 2 SD number” value is listed as 1/81 and the “RA patients over mean + 2 SD number” value is on record as 25/120***.

On to “SAFAGLGPXEKGPD (SAFAGLGP[Cit]EKGPD; also: biotinylated (site not given here)) [CC2]”, for which, in the assay on human sera, the “number of RA sera that bound more citrullinated peptide than normal (arginine) peptide” value is “two” and the “mean (variance/SD) of the differences, absorbance value of citrullinated peptide minus that of arginine peptide” value is listed as −0.027 (0.029).

Consider SAFAGLGPXEKGPD [CC2 Arginine peptide], for which, in the assay on human sera, the “Controls mean ± SD absorbance” value was 0.162 ± 0.053, the “Controls over mean + 2 SD number” value is recorded as 3/81 and the “RA patients over mean + 2 SD number” value was 50/120***.

As to “YDFGYDGDFYXA (YDFGYDGDFY[Cit]A; also: biotinylated (site not given here)) [listing 1 of 2 here]”, in the assay with human sera, the “Controls mean ± SD absorbance” value is given as 0.763 ± 0.356, the “Controls over mean + 2 SD number” value is on record as 3/81 and the “RA patients over mean + 2 SD number” value was 12/120**.

In the case of “YDFGYDGDFYXA (YDFGYDGDFY[Cit]A; also: biotinylated (site not given here)) [listing 2 of 2 here]”, the “mean (variance/SD) of the differences, absorbance value of citrullinated peptide minus that of arginine peptide” value in the assay with human sera was “+0.071 (0.252)”.
